Experimental data taken from patent publication US12274729B2, “Formulations and methods for skin care or hyaluronic acid synthesis” (AMILYFE, LLC, priority 2022, dated 2025).

Experiments:
[1] = Preliminary screens of amino acids
Method: In addition to the amino acid combinations described above, several other combinations are tested that include, e.g., Trp and/or Arg to determine if inclusion of these amino acids confers additional dermatological benefits. […] At the outset, the following combinations of amino acids are tested: Ala, Gln, Gly, Ser (combo #1); Ala, Gln, Gly, Ser, Val, Ile (combo #2); Ala, Gln, Gly, Ser, Val; Ala, Gln, Gly, Ser, Ile; Ala, Gln, Gly, Ser, Ile, Val, Trp; Ala, Gln, Gly, Ser, Ile, Val, Arg; and Ala, Gln, Gly, Ser, Ile, Val, Trp, Arg.

[2] = test system: barrier marker genes in differentiated normal human epidermal keratinocytes (NHEK); assay: qPCR mRNA expression of barrier marker genes in differentiated NHEK; type: cell-based; conditions: qPCR data from two donors
Method: Treatment time—4 h. […] Data from two independent experiments. Exemplary barrier marker genes examined as follows: Epidermal growth factor (EGF); fibroblast growth factor 2 (FGF2); platelet derived growth factor (PDGF); Carnitine Palmitoyltransferase 2 (CPT2); Transglutaminase 4 (TGM4); Peroxisome Proliferator Activated Receptor Delta (PPARD); TNF Receptor Superfamily Member 10d (TNFRSF10D).
To test the effect of amino acid treatment on epithelial skin barrier, a cellular model of differentiated normal human epidermal keratinocytes (NHEK) was utilized. Commercially available NHEK (ATCC), derived from three diverse healthy donors, were used. Based on a multivariate analysis, three amino acids for the treatment: Ser, Gln and Gly were selected.
Using gene arrays, comparative analyses of two datasets were performed in three diverse donors focusing on consistently differentially [filter criterion of fold change 1.5 (positive or negative) and p-value <0.05)] expressed genes following treatment with various amino acids and combinations thereof. qPCR was used to assess the mRNA expression results. The qPCR results confirmed the array results pertaining to differential expression, thereby validating the panel of genes.
mRNA is extracted, converted to cDNA, and analyzed by qPCR method using custom TaqMan array 384-well plates (Thermo Fisher Scientific) containing 34 of the above-mentioned genes. Four control housekeeping genes are included to normalize the mRNA expression: GAPDH, POLR2A, YWHAZ and PGK1. The array plate will contain 38 genes in total and 10 samples can be analyzed in one run of qPCR.

[3] = test system: HAS3 mRNA in human-derived epidermal keratinocytes (NHEK); assay: HAS3 mRNA fold change (qPCR) in keratinocytes; type: cell-based; conditions: 4GAA 4 mM, ROL 10 μM
[4] = test system: HAS2 mRNA in human-derived epidermal keratinocytes (NHEK); assay: HAS2 mRNA fold change (qPCR) in keratinocytes; type: cell-based; conditions: 4GAA 4 mM, ROL 10 μM
[5] = Donor O and Donor R keratinocytes, 24 h in complete medium
[6] = NHEK Donors E, G, O, R, T, 4 h in amino acid-deprived medium

Row | Structure (SMILES) | effectiveness in comparative analysis of qPCR data with scoring system [2] | also measured
1 | N=C(N)NCCC[C@H](N)C(=O)O [Arg, arginine] | – | effect in preliminary screens [1]: positive effects
2 | N[C@@H](CC(=O)O)C(=O)O [Asp, aspartic acid] | least effective | –
3 | CC1=C(/C=C/C(C)=C/C=C/C(C)=C/CO)C(C)(C)CCC1 [ROL, retinol] | – | HAS3 mRNA gene expression [3, 5]: upregulated; HAS3 gene expression [3, 6]: upregulated; HAS2 mRNA gene expression [4, 5]: upregulated; HAS2 gene expression [4, 6]: upregulated
4 | NCC(=O)O [Gly, glycine] | most effective | –
5 | N[C@@H](Cc1c[nH]c2ccccc12)C(=O)O [Trp, tryptophan] | – | effect in preliminary screens [1]: positive effects
6 | N[C@@H](Cc1ccc(O)cc1)C(=O)O [Tyr, tyrosine] | least effective | –
7 | C[C@@H](O)[C@H](N)C(=O)O [Thr, threonine] | least effective | –
8 | N[C@@H](CO)C(=O)O [Ser, serine] | most effective | –
9 | NC(=O)CC[C@H](N)C(=O)O [Gln, glutamine] | most effective | –
10 | C[C@H](N)C(=O)O [Ala, alanine] | most effective | –
11 | O=C(O)[C@@H]1CCCN1 [Pro, proline] | least effective | –
12 | N[C@@H](CS)C(=O)O [Cys, cysteine] | least effective | –
